# Assay results: US7390925B2, “Oxime-containing acyl guanidines as beta-secretase inhibitors” (Bristol-Myers Squibb Company, priority 2006, dated 2008)
# Molecular target: T1, BACE1 enzyme (Homo sapiens, UniProt P56817)
# T1 construct: derived from HEK293 cells (Simmons, N. L. (1990)); endogenous in cells; washed 48,000 x g pellet of cell homogenate
# Assay: Radioligand displacement assay with a radiolabeled BACE inhibitor on HEK293-9B.A1 cell homogenate
# Type: binding
# Settings: displacement of 1 nM radioligand, HEK293-9B.A1 homogenate, pH 5.0, 1.5 hr at 25° C.; read-out: Activity Rating (activity based on IC50 values)
# Text: There are a number of methods by which inhibitors of the BACE enzyme can be identified experimentally. The enzyme can be obtained from membrane samples from natural tissues or cultured cells or can be expressed recombinantly in a host cell by well known methods of molecular biology. The whole enzyme or a portion thereof can be expressed, for example, in bacterial, insect or mammalian cells to obtain a catalytically active enzyme species. The enzymatic activity and/or ligand binding capability of the enzyme can be assessed within these membrane samples, or the enzyme can be purified to varying extents. As an illustrative example, the nucleic acid sequence encoding the pro and catalytic domains of human BACE can be appended on the 5′ end with an untranslated and signal sequence from the gene for acetylcholinesterase, and on the 3′ end with a sequence encoding a poly-histidine tag. This cDNA can then be expressed in Drosophila melanogaster S2 cells in which the signal and pro sequences of the transcribed/translated protein are removed by cellular proteases and the catalytic domain, appended by a C-terminal poly-histidine tag, is secreted out into the cellular medium. The enzyme can then be purified from the culture medium by nickel affinity chromatography by methods well known to those trained in the art [Mallender, W. et al., (2001) “Characterization of recombinant, soluble beta-secretase from an insect cell expression system.” Mol. Pharmacol. 59: 619-626]. Similar strategies for expressing and purifying various forms of BACE in bacterial, mammalian and other cell types would be known to one skilled in the art. A preferred method for determining the potency of a test compound in binding to the BACE enzyme is by monitoring the displacement of a suitable radioligand.
# Radioligand displacement assays with a radiolabeled BACE inhibitor (WO 2004 013098, compound 3, where the methoxy group is substituted for C(^3H)3) were carried out using standard methods (Keen, M. (1999) in Receptor Binding Techniques (Walker, J. M. ed) p. 106 Humana Press, Totowa, N. J.). The HEK293-9B.A1 cell line, which overexpresses the BACE1 enzyme, was derived from HEK293 cells (Simmons, N. L. (1990) A cultured human renal epithelioid cell line responsive to vasoactive intestinal peptide. Exp. Physiol. 75:309-19.) by RAGE™ (Harrington, J. J. et al. (2001) Creation of genome-wide protein expression libraries using random activation of gene expression. Nat. Biotechnol. 19:440-5.; U.S. Pat. Nos. 6,410,266 and 6,361,972). T225 flask cultures of HEK293-9B.A1 were grown to 80% confluency in DMEM supplemented with 2 mM L-glutamine, 10 μg/ml penicillin, 10 μg/ml streptomycin, 3 μg/ml puromycin, 100 nM methotrexate, and 10% fetal bovine serum (Invitrogen, Carlsbad, Calif.), harvested, and resuspended at 2×10^8 cells per 10 ml of lysis buffer consisting of 50 mM HEPES pH 7.0 containing a protease inhibitor cocktail of AEBSF 104 μM, aprotinin 80 nM, leupeptin 2 μM, bestatin 4 μM, pepstatin A 1.5 μM, and E-64 1.4 μM (0.1% of protease inhibitor cocktail P8340, Sigma-Aldrich, St. Louis, Mo.) at 4° C. The resuspended cells were homogenized using a Polytron (Brinkman, Westbury, N.Y.) at setting 6 for 10 sec., then centrifuged at 48,000×g for 10 min. The resulting pellet was washed by repeating the resuspension, homogenization and centrifugation steps. The final pellet was resuspended in buffer at 4° C. to yield a total protein concentration of 5 mg/ml, then aliquots were frozen in liquid nitrogen for further storage at −70° C. Immediately before carrying out a binding assay, an aliquot of cell homogenate was thawed and diluted to a concentration of 100 μg/ml in assay buffer consisting of 50 mM HEPES pH 5.0 and 0.1% CHAPSO. […]
# T1 sequence (P56817 46-501): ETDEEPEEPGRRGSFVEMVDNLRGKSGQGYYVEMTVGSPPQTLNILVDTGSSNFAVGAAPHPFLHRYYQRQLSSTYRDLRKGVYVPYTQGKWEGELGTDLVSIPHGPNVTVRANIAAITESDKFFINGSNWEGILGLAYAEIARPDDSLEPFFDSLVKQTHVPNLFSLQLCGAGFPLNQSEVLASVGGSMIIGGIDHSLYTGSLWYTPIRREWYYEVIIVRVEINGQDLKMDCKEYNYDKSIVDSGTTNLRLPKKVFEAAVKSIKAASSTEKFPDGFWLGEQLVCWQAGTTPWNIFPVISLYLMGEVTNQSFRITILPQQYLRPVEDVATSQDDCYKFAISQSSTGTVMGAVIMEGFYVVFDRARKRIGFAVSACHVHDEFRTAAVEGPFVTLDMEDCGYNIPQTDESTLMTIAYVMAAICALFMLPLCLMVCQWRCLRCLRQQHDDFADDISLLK
row,Molecule,IC50
1,"N-(1-Amino-2-(4-amino-3,5-dichlorophenyl)ethylidene)-3-(methoxyimino)-3-(2-methoxyphenyl)propanamide [Example 13]",> 1000 nM
2,"N-(1-Amino-2-(4-amino-3,5-dichlorophenyl)ethylidene)-3-(methoxyimino)-3-(4-methoxyphenyl)propanamide [Example 2]",100 to 1000 nM
3,"CON=C(CC(=O)/N=C(\N)NCc1cc(C)c(C(=O)CN(C)C)c(Cl)c1)c1c[nH]c2ccccc12 [Example 22, N-((3-chloro-4-(2-(dimethylamino)acetyl)-5-methylbenzylamino)(amino)-methylene)-3-(1H-indol-3-yl)-3-(methoxyimino)propanamide]",100 to 1000 nM
4,"N-(2-(4-Acetamido-3,5-dichlorophenyl)-1-aminoethylidene)-3-(4-fluorophenyl)-3-(methoxyimino)propanamide [Example 15]",< 100 nM
5,"CON=C(CC(=O)/N=C(\N)NCc1cc(Cl)c(N)c(Cl)c1)c1c[nH]c2ccccc12 [Example 20, N-((4-amino-3,5-dichlorobenzylamino)(amino)methylene)-3-(1H-indol-3-yl)-3-(methoxyimino)propanamide]",100 to 1000 nM
6,"N-(1-Amino-2-(4-amino-3,5-dichlorophenyl)ethylidene)-3-(methoxyimino)-3-phenylpropanamide [Example 9]",100 to 1000 nM
7,"N-(1-Amino-2-(4-amino-3,5-dichlorophenyl)ethylidene)-3-(methoxyimino)-3-(4-nitrophenyl)propanamide [Example 17]",100 to 1000 nM
8,N-(1-Amino-2-(3-chloro-4-(2-(dimethylamino)acetamido)-5-methylphenyl)-ethylidene)-3-(methoxyimino)-3-(4-methoxyphenyl)propanamide [Example 4],100 to 1000 nM
9,"N-(2-(4-Acetamido-3,5-dichlorophenyl)-1-aminoethylidene)-3-(ethoxyimino)-3-(4-methoxyphenyl)propanamide [Example 5]",< 100 nM
10,"COc1ccc(C(CC(=O)/N=C(\N)NCc2cc(Cl)c(N)c(Cl)c2)=NOCC(C)C)cc1 [Example 19, N-((4-amino-3,5-dichlorobenzylamino)(amino)methylene)-3-(isobutoxyimino)-3-(4-methoxyphenyl)propanamide]",> 1000 nM
11,"CON=C(CC(=O)/N=C(\N)NCc1cc(Cl)c(NC(C)=O)c(Cl)c1)c1c[nH]c2ccccc12 [Example 21, N-((4-acetamido-3,5-dichlorobenzylamino)(amino)methylene)-3-(1H-indol-3-yl)-3-(methoxyimino)propanamide]",< 100 nM
12,"N-(2-(4-Acetamido-3,5-dichlorophenyl)-1-aminoethylidene)-3-(4-nitrophenyl)-3-(methoxyimino)propanamide [Example 16]",< 100 nM
13,"COc1ccc(C(CC(=O)N=C(N)NCc2cc(Cl)c(NC(C)=O)c(Cl)c2)=NOCC(C)C)cc1 [Example 18, N-((4-acetamido-3,5-dichlorobenzylamino)(amino)-methylene)-3-(isobutoxyimino)-3-(4-methoxyphenyl)propanamide]",100 to 1000 nM
14,"N-(2-(4-Acetamido-3,5-dichlorophenyl)-1-aminoethylidene)-3-(methoxyimino)-3-(3-methoxyphenyl)propanamide [Example 11]",100 to 1000 nM
15,"N-(1-Amino-2-(4-amino-3,5-dichlorophenyl)ethylidene)-3-(ethoxyimino)-3-(4-methoxyphenyl)propanamide [Example 6]",100 to 1000 nM
16,"N-(1-Amino-2-(3,5-dichlorophenyl)ethylidene)-3-(methoxyimino)-3-(4-methoxyphenyl)propanamide [Example 3]",> 1000 nM
17,"N-(2-(4-Acetamido-3,5-dichlorophenyl)-1-aminoethylidene)-3-(methoxyimino)-3-(2-methoxyphenyl)propanamide [Example 12]",100 to 1000 nM
18,"CON=C(CC(=O)/N=C(\N)Cc1cc(Cl)c(NC(C)=O)c(Cl)c1)c1ccc(OC)cc1 [Example 1, N-(2-(4-Acetamido-3,5-dichlorophenyl)-1-aminoethylidene)-3-(methoxyimino)-3-(4-methoxyphenyl)propanamide]",< 100 nM
